Columns and labels:
SCD1 = biological target: T1, SCD1 (Homo sapiens, UniProt O00767); experiment: Growth inhibition of humanized yeast strain expressing SCD1 as sole desaturase; assay type: cell-based
T1 construct: host or cells: S. cerevisiae ole1Δ strain (W303 pdr1Δ pdr3Δ background), plasmid pRS316 with TDH3 promoter and CYC1 terminator
T1 sequence (O00767 1-359): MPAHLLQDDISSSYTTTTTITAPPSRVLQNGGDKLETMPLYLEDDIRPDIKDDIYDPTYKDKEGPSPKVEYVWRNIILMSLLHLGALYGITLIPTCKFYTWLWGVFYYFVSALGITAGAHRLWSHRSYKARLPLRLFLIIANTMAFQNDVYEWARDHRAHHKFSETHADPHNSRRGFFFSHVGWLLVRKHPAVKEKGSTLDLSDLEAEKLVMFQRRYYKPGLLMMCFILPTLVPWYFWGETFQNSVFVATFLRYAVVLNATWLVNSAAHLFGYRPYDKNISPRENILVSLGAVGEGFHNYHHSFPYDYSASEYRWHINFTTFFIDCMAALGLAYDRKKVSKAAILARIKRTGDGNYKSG
In short: (§1)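 Measured by optical density at 600 nm, growth of desaturase-dependent yeast (OLE1 deleted; human SCD1, human SCD5 or yeast Ole1 supplied from plasmid) was scored after 24 h (Ole1) or 40 h (SCD1, SCD5) at 30° C. in galactose media lacking uracil with DMSO-delivered compound.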

SCD5 = biological target: T2, SCD5 (Homo sapiens, UniProt Q86SK9); experiment: Growth inhibition of humanized yeast strain expressing SCD5 as sole desaturase; assay type: cell-based
T2 construct: host or cells: S. cerevisiae ole1Δ strain (W303 pdr1Δ pdr3Δ background), plasmid pRS316 with TDH3 promoter and CYC1 terminator
T2 sequence (Q86SK9 1-330): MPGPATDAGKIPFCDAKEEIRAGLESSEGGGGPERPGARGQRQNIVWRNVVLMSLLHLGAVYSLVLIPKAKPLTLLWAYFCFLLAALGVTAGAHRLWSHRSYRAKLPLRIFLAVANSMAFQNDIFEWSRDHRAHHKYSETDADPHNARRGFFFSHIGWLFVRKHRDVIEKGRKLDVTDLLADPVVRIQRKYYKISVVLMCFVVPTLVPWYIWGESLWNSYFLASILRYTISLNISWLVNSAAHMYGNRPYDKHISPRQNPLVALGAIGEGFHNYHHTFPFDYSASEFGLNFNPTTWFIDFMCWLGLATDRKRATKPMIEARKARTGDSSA
In short: as §1

[1] = humanized yeast strain expressing SCD1
[2] = humanized yeast strain expressing SCD5
[3] = growth inhibition of humanized yeast strain expressing human SCD1
[4] = growth inhibition of humanized yeast strain expressing human SCD5

| SMILES | IC50 (SCD1; humanized yeast strain, 40 h) [µM] | IC50 (SCD5; humanized yeast strain, 40 h) [µM] | other results |
| --- | --- | --- | --- |
| CC(C)(C)OC(=O)N1CCC(c2nc(-c3ccc4cnc(C#N)n4c3)no2)CC1 [Compound 942] | > 45 | 9.16 |  |
| CC(C)(C)OC(=O)N1CCC(c2cc(-c3cnc4cnn(C5CCOC5)c4c3)on2)CC1 (centres unmarked) [Compound 1233] |  |  | IC50 (SCD1; yeast strain expressing human SCD1 as sole desaturase, Table 8): 24.7 µM; IC50 (SCD5; yeast strain expressing human SCD5 as sole desaturase, Table 8): 6.54 µM |
| CC(C)n1ncc2ccc(-c3noc(C4CCN(C(=O)OC5(C)CC5)CC4(F)F)n3)cc21 (centres unmarked) [Compound 584] |  |  | IC50 (SCD1; [1]): > 45 µM; IC50 (SCD5; [2]): 5.34 µM |
| CC(C)n1ncc2ccc(-c3nc(C4CCN(C(=O)CC(C)(C)C)C4)no3)cc21 (centres unmarked) [Compound 542] |  |  | IC50 (SCD1; [1]): > 45 µM; IC50 (SCD5; [2]): 7.33 µM |
| C[C@H]1CN(c2noc(-c3ccc4cnn(C5COC5)c4c3)n2)CCN1C(=O)OC(C)(C)C [Compound 956] | > 45 | 2.46 |  |
| CC1(OC(=O)N2CCC(c3noc(-c4ccnc(NC5COC5)c4)n3)CC2)CC1 [Compound 1151] | > 45 | 1.09 |  |
| CC(C)(C)OC(=O)N1CCC(c2noc(-c3ccc4cnn(C5CS(=O)(=O)C5)c4c3)n2)CC1 [Compound 990] | > 45 | 0.01 |  |
| CN(c1cc(-c2nc(C3CCN(C(=O)OC4(C)CC4)CC3)no2)ccn1)C1COC1 [Compound 1158] | > 45 | 3.5 |  |
| CC(C)C(=O)N1CCC(c2noc(-c3ccc4cnn(C5COC5)c4c3)n2)CC1 [Compound 927] | > 45 | 0.14 |  |
| COC(=O)N1CCC(c2cc(-c3cc4c(cn3)cnn4C3COC3)on2)CC1 [Compound 1111] | > 45 | 0.179 |  |
| Clc1cnc2n1CCN(c1noc(-c3ccc4cnn(C5CNC5)c4c3)n1)C2 [Compound 934] | > 45 | 0.01 |  |
| CC(C)(C)OC(=O)N1CCC(c2nc(-c3cccc(C(=O)N4CCC4)c3)no2)CC1 [Compound 741] |  |  | IC50 (SCD1; [3]): > 45 µM; IC50 (SCD5; [4]): 7.76 µM |
| COC(=O)N1CCC(c2noc(-c3cc(C#N)c4cnn(C5COC5)c4c3)n2)CC1 [Compound 1085] | > 45 | 0.532 |  |
| Cc1nn(C)c2cc(-c3noc(C4CCN(C(=O)CNC(=O)c5ccc(F)cc5)CC4(F)F)n3)ccc12 (centres unmarked) [Compound 557] |  |  | IC50 (SCD1; [1]): > 45 µM; IC50 (SCD5; [2]): 6.03 µM |
| O=C(N1CCN(c2noc(-c3ccc4cnn(C5COC5)c4c3)n2)CC1)C12CC(C1)C2 [Compound 843] | > 45 | 0.033 |  |
| COC(=O)N1CCN(c2noc(-c3ccnc(OC(CO)CO)c3)n2)CC1 [Compound 1007] | > 45 | > 45 |  |
| CC(C)n1ncc2ccc(-c3nc(C4CCN(C(=O)CC5CC5)CC4)no3)cc21 [Compound 853] | > 45 | 0.01 |  |
| CCC(=O)N1CCN(c2noc(-c3ccc4cnn(C5COC5)c4c3)n2)CC(F)(F)C1 [Compound 1038] | > 45 | 2.3 |  |
| COC(=O)N1CCC(c2noc(-c3ccc4cnn(C5COC(C)(C)C5)c4c3)n2)CC1 (centres unmarked) [Compound 1094] | > 45 | 17.4 |  |
| O=C(C1CCC1)N1CCC(c2noc(-c3cccc(N4CCOCC4)n3)n2)CC1 [Compound 1103] | > 45 | 23.4 |  |
| CC(C)(C)OC(=O)N1CC(n2ncc3ccc(-c4nc(N5CCn6c(Cl)cnc6C5)no4)cc32)C1 [Compound 925] | > 45 | > 45 |  |
| O=C(N1CCC(c2noc(-c3ccc4cnn(C5COC5)c4c3)n2)CC1)C1(F)CCC1 [Compound 1029] | > 45 | 0.01 |  |
| CC(C)(C)OC(=O)N1CCC(c2nc(-c3ccc4cnn(CC5COC5)c4c3)no2)CC1 [Compound 661] |  |  | IC50 (SCD1; [3]): > 45 µM; IC50 (SCD5; [4]): 1.54 µM |
| COC(=O)N1CCC(c2noc(-c3ccc4oc(=O)n(C5COC5)c4c3)n2)CC1 [Compound 1031] | > 45 | 1.13 |  |
| O=C(OC1CC1)N1CCN(c2nc(-c3ccc4cnn(C5COC5)c4c3)no2)CC1 [Compound 642] |  |  | IC50 (SCD1; [3]): > 45 µM; IC50 (SCD5; [4]): 0.211 µM |
| CC(C)C(=O)N1CCC(c2nc(-c3ccc4cnn(C5COC5)c4c3)no2)CC1 [Compound 1023] | > 45 | 0.295 |  |
| CNC(=O)c1nc(-c2ccc3c(C)nn(C)c3c2)no1 [Compound 745] |  |  | IC50 (SCD1; [3]): > 45 µM; IC50 (SCD5; [4]): > 45 µM |
| COC1(c2nc(-c3ccc4cnn(C(C)C)c4c3)no2)CCN(C(=O)OC(C)(C)C)CC1 [Compound 836] | > 45 | 1.44 |  |

| SMILES | IC50 (SCD1; humanized yeast strain, 40 h) [µM] | IC50 (SCD5; humanized yeast strain, 40 h) [µM] | other results |
| --- | --- | --- | --- |
| COC(=O)N1CCC(c2nc(-c3ccc4cnn(C5COC5)c4c3)no2)CC1 [Compound 635] |  |  | IC50 (SCD1; [3]): > 45 µM; IC50 (SCD5; [4]): 0.397 µM |
| C[C@H]1C[C@@H](c2noc(-c3ccc4cnn(C5COC5)c4c3)n2)CCN1C(=O)OC(C)(C)C [Compound 1025] | > 45 | 0.01 |  |
| CC(C)(C)OC(=O)N1CCN(c2noc(-c3ccnc(NC4COC4)c3)n2)CC1 [Compound 818] | > 45 | 0.56 |  |
| CC(C)n1ncc2ccc(-c3noc(C4CCN(C(=O)CNC(=O)c5cccc(C#N)c5)CC4(F)F)n3)cc21 (centres unmarked) [Compound 523] |  |  | IC50 (SCD1; [1]): > 45 µM; IC50 (SCD5; [2]): > 45 µM |
| CC(C)(C)OC(=O)N1CCN(c2nc(-c3ccc4cn(C5CCC5)nc4c3)no2)CC1 [Compound 729] |  |  | IC50 (SCD1; [3]): > 45 µM; IC50 (SCD5; [4]): > 45 µM |
| CCC(=O)N1CCC(c2noc(-c3cc(F)c4cnn(C5COC5)c4c3)n2)CC1 [Compound 1072] | > 45 | 0.021 |  |
| CC(C)(C)OC(=O)N1CCC(c2noc(-c3cc(F)c4cnn(C5CCOC5)c4c3)n2)CC1 (centres unmarked) [Compound 1075] | 4.4 | 0.01 |  |
| C[C@H]1C[C@H](c2noc(-c3ccc4cnn(C5COC5)c4c3)n2)CCN1C(=O)C1CCC1 [Compound 1056] | > 45 | 0.00469 |  |
| O=C(N1CCC(c2noc(-c3ccc4cnn([C@@H]5CCOC5)c4c3)n2)CC1)C1(F)CC1 [Compound 1096] | > 45 | 0.00101 |  |
| CC(C)(C)OC(=O)N1CCC(c2nc(-c3ccc4cnn(C5CC(F)(F)C5)c4c3)no2)CC1 [Compound 742] |  |  | IC50 (SCD1; [3]): > 45 µM; IC50 (SCD5; [4]): 5.05 µM |
| Cn1cc(-c2cc(-c3nc(C4CCN(C(=O)OC5(C)CC5)CC4)no3)ccn2)cn1 [Compound 1186] | 10 | 6.08 |  |
| CC(C)(C)OC(=O)N1CCC(c2nc(-c3cccc(C(=O)C4COC4)c3)no2)CC1 [Compound 796] | > 45 | 1.59 |  |
| COC1CCC(S(=O)(=O)N2CCC(c3nc(-c4ccc5cnn(C(C)C)c5c4)no3)CC2)CC1 (centres unmarked) [Compound 675] |  |  | IC50 (SCD1; [3]): > 45 µM; IC50 (SCD5; [4]): 0.01 µM |
| O=C(N1CCN(c2noc(-c3ccc4cnn(C5COC5)c4c3)n2)CC(F)(F)C1)C1(F)CC1 [Compound 1057] | > 45 | 0.023 |  |
| CC1(OC(=O)N2CCC(c3noc(-c4ccnc(Cl)c4)n3)CC2)CC1 [Compound 1130] | > 45 | 9.9 |  |
| CC(C)(C)OC(=O)N1CCC(c2nc(-c3ccc4cn(C5CCCOC5)nc4c3)no2)CC1 (centres unmarked) [Compound 719] |  |  | IC50 (SCD1; [3]): > 45 µM; IC50 (SCD5; [4]): > 45 µM |
| CC(C)(C)OC(=O)N1CCC(c2noc(-c3cccc([C@@H]4CCOC4)c3)n2)CC1 [Compound 795] | > 45 | 0.01 |  |
| CC(C)(C)OC(=O)N1CCC(c2noc(-c3cncc(N4CCC(F)(F)C4)c3)n2)CC1 [Compound 1181] | > 45 | 0.47 |  |
| CC(C)n1ncc2ccc(-c3noc(C4CCN(C(=O)CNC(=O)c5cccc(F)c5)CC4(F)F)n3)cc21 (centres unmarked) [Compound 551] |  |  | IC50 (SCD1; [1]): > 45 µM; IC50 (SCD5; [2]): > 45 µM |
| CC(C)n1ncc2ccc(-c3noc(C4CCN(C(=O)N5CCC5(C)C)CC4)n3)cc21 [Compound 684] |  |  | IC50 (SCD1; [3]): > 45 µM; IC50 (SCD5; [4]): > 45 µM |
| Fc1c(-c2nc(C3CCNCC3)no2)ccc2cnn(C3COC3)c12 [Compound 989] | > 45 | > 45 |  |
| CC(C)n1nc(CCN(C)C)c2ccc(-c3noc(C4CCN(C(=O)OC(C)(C)C)CC4)n3)cc21 [Compound 759] | > 45 | > 45 |  |
| COC(=O)N1CCN(c2noc(-c3ccc4cnn(C5COC5)c4c3)n2)CC1 [Compound 713] |  |  | IC50 (SCD1; [3]): 5.58 µM; IC50 (SCD5; [4]): 0.01 µM |
| CC(C)(C)OC(=O)N1CCC(c2noc(-c3ccccc3N3CCOCC3)n2)CC1 [Compound 1145] | > 45 | 11.1 |  |
| O=C(c1sccc1Cl)N1CCC(c2nc(-c3ccc4cnn(C5COC5)c4c3)no2)CC1 [Compound 718] |  |  | IC50 (SCD1; [3]): > 45 µM; IC50 (SCD5; [4]): 0.635 µM |
| O=C(OC1CCC1)N1CCC(c2nnc(-c3ccc4cnn(C5CCOC5)c4c3)o2)CC1 (centres unmarked) [Compound 1084] | > 45 | 0.027 |  |
| COC(=O)N1CCC(c2nc(-c3ccc4cnn(C5CN(C(=O)OC(C)(C)C)C5)c4c3)no2)CC1 [Compound 951] | > 45 | > 45 |  |
